Source: a compilation of properties of binary mixtures (doi:10.1016/j.fluid.2019.112304)

Assay: xn = mol fraction of the nth substance listed
Conditions: 101 kPa

CCCCCCCCCCCC[N+](C)(C)Cc1ccccc1.O=S(=O)([N-]S(=O)(=O)C(F)(F)F)C(F)(F)F + CCCCO
viscosity [mPa·s]
Conditions | x1 = 0.1507 | x1 = 0.3015 | x1 = 0.4494 | x1 = 0.594 | x1 = 0.7485 | x1 = 0.9164 | x1 = 1
298.15 K | 15.3 | 43.6 | 103 | 208 | 505 | 1066 | –
303.15 K | 12.4 | – | 78 | 153 | 362 | 748 | 970
308.15 K | 10.4 | – | 60.1 | 115 | 266 | 532 | –
313.15 K | 8.75 | 22 | 47.2 | 86.1 | – | 386 | 485
318.15 K | – | 18.1 | – | 69.1 | 150 | 285 | 351
323.15 K | 6.4 | 14.9 | 30.4 | 57.2 | 117 | 210 | 261
328.15 K | 5.54 | 12.5 | 24.9 | 46.8 | 91.6 | – | 197
333.15 K | – | 10.5 | – | – | 76.8 | 125 | 152
338.15 K | 4.24 | 8.87 | 17.2 | 33.8 | – | 99 | –
343.15 K | 3.75 | 7.58 | 14.6 | 29 | – | 79.2 | 91.8
348.15 K | 3.43 | 6.53 | 12.2 | – | 46.3 | 68 | 77.5

c1ccsc1 + N#C[C-](C#N)C#N.OCC[n+]1ccccc1
x2 = 0
Conditions | viscosity [mPa·s]
293.15 K | 0.653
298.15 K | 0.615
308.15 K | 0.545
313.15 K | 0.518
318.15 K | 0.491
323.15 K | 0.464
328.15 K | 0.441
338.15 K | 0.4
343.15 K | 0.382

N#C[C-](C#N)C#N.OCC[n+]1ccccc1 + c1ccsc1
viscosity [mPa·s]
Conditions | x1 = 0.4042 | x1 = 0.4996 | x1 = 0.6 | x1 = 0.7041 | x1 = 0.8044 | x1 = 0.901 | x1 = 1
293.15 K | 19.9 | 29.5 | 40.2 | – | 67 | 91.2 | –
298.15 K | 16.3 | 23.6 | 31.8 | 41.2 | 51.6 | – | 97
303.15 K | 13.6 | – | 25.5 | 32.7 | 40.1 | – | 71.8
308.15 K | 11.5 | 15.8 | 20.7 | 26.1 | 31.6 | 39.6 | 54.6
313.15 K | 10 | 13.4 | 17.2 | 21.2 | 25.6 | 31.6 | 42.3
318.15 K | 8.78 | 11.4 | 14.4 | 17.7 | – | 25.7 | 34
323.15 K | 7.81 | 9.87 | – | 14.8 | 17.6 | 21.3 | 27.8
328.15 K | 7.01 | 8.67 | 10.6 | – | 14.8 | – | 22.9
333.15 K | 6.15 | – | – | 10.9 | 12.8 | 15.2 | 19.3
338.15 K | – | – | 7.86 | – | 11.1 | 13.1 | 16.4
343.15 K | 4.68 | – | 6.99 | 8.4 | – | 11.5 | 14
348.15 K | 4.17 | 5.12 | 6.2 | 7.5 | 8.89 | 10.3 | 12.3

CCCCO + CCCCCCCCCCCC[N+](C)(C)Cc1ccccc1.O=S(=O)([N-]S(=O)(=O)C(F)(F)F)C(F)(F)F
x2 = 0
Conditions | viscosity [mPa·s]
303.15 K | 2.23
318.15 K | 1.56
323.15 K | 1.42
328.15 K | 1.27
333.15 K | 1.11
338.15 K | 1.01
